Experimental data published in US12527775B2 (priority 2020, dated 2026).
Where two headings read alike, the source gives them in different places.

What was measured:
[1] = target: human recombinant 5-HT2A receptor (Homo sapiens (Human), UniProt P28223); test: biochemical; assay type: binding; conditions: [3H]-Ketanserin 3 nmol/L, Jump-In HEK cell membrane
Procedure: Test Example 1: 5-HT2A Receptor Binding Inhibition Test
(Each Experimental Condition)
Cell membrane: 15 μg of Jump-In HEK cell membrane (expressing human recombinant 5-HT2A receptor) per well
Assay buffer: Tris-HCl 50 mmol/L (pH 7.4) containing NaCl 120 mmol/L, MgCl2·6H2O 1 mmol/L, KCl 5 mmol/L, 0.1% BSA and CaCl2 2 mmol/L
Radioactive ligand: [^3H]-Ketanserin with a final concentration of 3 nmol/L
(§1) Non-specific ligand: Serotonin HCl with a final concentration of 500 μmol/L
(§2) The Kd value was calculated when the lot of cell membrane was changed. […] The radioactive ligand solution was serially diluted from 16 nM at a 2-fold ratio and the count was confirmed with a liquid scintillator. […] After that, filtration was performed with Cell harvester (PerkinElmer). The radioactive ligand solution was dispensed into an empty well of the GF/B UniFilter plate at 10 μL/well. […] The GF/B UniFilter plate was allowed to stand overnight at room temperature. […] The Saturation curve was drawn from the measured value, and the Kd value was calculated from the slope of the Scatchard Plot.
(§3) (Binding Test of the Compound According to the Present Invention)
(§4) After that, filtration was performed with Cell harvester (PerkinElmer).

hERG channel (IKr) = hERG channel (IKr) (Homo sapiens (Human), UniProt Q12809); test: hERG test (automated whole cell patch clamp, IKr); assay type: cell-based; conditions: CHO cells expressing hERG channel, pH 7.4, compound concentration of 3 μmol/L, read-out: hERG inhibition rate (tail peak current IKr)
Text: Test Example 3: hERG Test
For the purpose of assessing risk of an electrocardiogram QT interval prolongation of the compound according to the present invention, effects of the compound according to the present invention on delayed rectifier K^+ current (IKr), which plays an important role in the ventricular repolarization process, was studied using CHO cells expressing human ether-a-go-go related gene (hERG) channel.
After a cell was retained at a membrane potential of −80 mV by whole cell patch clamp method using an automated patch clamp system (QPatch; Sophion Bioscience A/S) and gave a leak potential of −50 mV, IKr induced by depolarization pulse stimulation at +20 mV for 2 seconds, and further, repolarization pulse stimulation at −50 mV for 2 seconds, was recorded. A vehicle, which was the 0.1% dimethyl sulfoxide solution in extracellular solution (NaCl: 145 mmol/L, KCl: 4 mmol/L, CaCl2: 2 mmol/L, MgCl2: 1 mmol/L, glucose:10 mmol/L, HEPES (4-(2-hydroxyethyl)-1-piperazineethanesulfonic acid): 10 mmol/L, pH7.4), or the compound according to the present invention had been dissolved at an objective concentration in the extracellular solution, each of the extracellular solution was applied to the cell at room temperature for 15 minutes or more. From the recording IKr, an absolute value of the tail peak current was measured based on the current value at the resting membrane potential using analysis software (QPatch Assay software; Sophion Bioscience A/S). The % inhibition of the tail peak current after application of the compound according to the present invention relative to the tail peak current after application of the vehicle was calculated, and further correction was performed using the inhibition rate result of the negative control to assess influence of the compound according to the present invention on IKr.

[2] = target: human recombinant 5-HT2C receptor (Homo sapiens (Human), UniProt P28335); test: biochemical; assay type: binding
Procedure: Test Example 2: 5-HT2C Receptor Binding Inhibition Test
(Each experimental condition)
Cell membrane: 0.5 μg of Jump-In HEK cell membrane (expressing human recombinant 5-HT2C receptor) per well
Assay buffer: Tris-HCl 50 mmol/L (pH 7.4) containing NaCl 120 mmol/L, MgCl2·6H2O 1 mmol/L, KCl 5 mmol/L, 0.1% BSA and CaCl2) 2 mmol/L
Radioactive ligand: [^3H]-Mesulergine with a final concentration of 1 nmol/L
as §1, §2, §3, §4

[3] = read-out: human serotonin 5-HT2A receptor binding activity, Ki
[4] = [3H]-Mesulergine 1 nmol/L, Jump-In HEK cell membrane, read-out: human serotonin 5-HT2C receptor binding activity, Ki
[5] = class symbols, read-out: h-5-HT2A Ki
[6] = human serotonin 5-HT2C receptor binding, [3H]-Mesulergine, read-out: h-5-HT2C Ki

Sequence of hERG channel (IKr) (Q12809 whole entry): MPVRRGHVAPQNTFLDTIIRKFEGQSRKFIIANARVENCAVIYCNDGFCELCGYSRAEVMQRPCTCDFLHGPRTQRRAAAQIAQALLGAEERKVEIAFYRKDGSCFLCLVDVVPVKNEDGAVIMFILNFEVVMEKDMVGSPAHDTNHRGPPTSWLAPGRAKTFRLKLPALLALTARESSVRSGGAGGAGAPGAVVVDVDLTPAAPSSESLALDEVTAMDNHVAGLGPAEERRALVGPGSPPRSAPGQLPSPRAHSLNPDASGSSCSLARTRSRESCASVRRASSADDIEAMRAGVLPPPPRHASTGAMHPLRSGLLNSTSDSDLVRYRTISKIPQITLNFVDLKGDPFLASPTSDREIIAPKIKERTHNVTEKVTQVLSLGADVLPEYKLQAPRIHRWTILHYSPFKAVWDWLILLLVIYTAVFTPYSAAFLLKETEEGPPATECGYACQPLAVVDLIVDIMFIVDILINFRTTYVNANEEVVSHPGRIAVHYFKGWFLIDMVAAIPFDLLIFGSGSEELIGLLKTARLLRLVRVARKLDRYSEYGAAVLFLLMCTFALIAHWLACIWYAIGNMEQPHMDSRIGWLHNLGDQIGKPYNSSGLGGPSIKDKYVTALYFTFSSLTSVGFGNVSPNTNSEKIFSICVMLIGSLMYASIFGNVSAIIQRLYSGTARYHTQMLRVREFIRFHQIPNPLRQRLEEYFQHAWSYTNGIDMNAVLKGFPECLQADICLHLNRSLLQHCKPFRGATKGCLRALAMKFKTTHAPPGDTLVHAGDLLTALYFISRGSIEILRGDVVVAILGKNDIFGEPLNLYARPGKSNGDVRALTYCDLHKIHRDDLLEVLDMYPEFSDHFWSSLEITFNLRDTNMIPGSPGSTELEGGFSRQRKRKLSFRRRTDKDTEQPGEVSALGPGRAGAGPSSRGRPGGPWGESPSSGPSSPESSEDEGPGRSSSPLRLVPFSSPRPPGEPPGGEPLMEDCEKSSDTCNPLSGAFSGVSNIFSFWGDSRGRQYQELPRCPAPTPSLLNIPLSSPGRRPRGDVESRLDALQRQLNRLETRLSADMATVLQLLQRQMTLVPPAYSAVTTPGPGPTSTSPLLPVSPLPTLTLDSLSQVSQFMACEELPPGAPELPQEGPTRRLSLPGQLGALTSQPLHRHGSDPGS
Sequence of human recombinant 5-HT2C receptor (P28335 whole entry, looked up): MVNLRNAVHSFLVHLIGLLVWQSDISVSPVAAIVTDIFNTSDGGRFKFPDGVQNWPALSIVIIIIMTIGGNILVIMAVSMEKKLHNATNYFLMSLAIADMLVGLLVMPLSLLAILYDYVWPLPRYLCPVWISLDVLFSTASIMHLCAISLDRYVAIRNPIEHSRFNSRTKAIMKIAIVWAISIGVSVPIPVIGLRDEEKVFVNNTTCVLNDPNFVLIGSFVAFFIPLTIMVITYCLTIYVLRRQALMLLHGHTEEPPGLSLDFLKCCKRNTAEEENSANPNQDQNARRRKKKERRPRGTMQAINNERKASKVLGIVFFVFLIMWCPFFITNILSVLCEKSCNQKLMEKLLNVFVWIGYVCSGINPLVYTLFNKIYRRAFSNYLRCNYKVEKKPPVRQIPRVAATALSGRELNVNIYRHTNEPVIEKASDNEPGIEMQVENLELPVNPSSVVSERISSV

| SMILES | Ki [1, 3] | inhibition at 3 μmol/L (hERG channel (IKr)) | Ki [2, 4] | Ki [1, 5] | Ki [2, 6] |
| --- | --- | --- | --- | --- | --- |
| CC(C)CNc1ccc(CNC(=O)N(Cc2ccc(F)cn2)[C@H]2CCNC[C@H]2F)cc1 [Compound I-129] | 0.85 nM | 31.4% | 1.51 nM | – | – |
| CCCOc1ccc(CNC(=O)N(Cc2ccn(C)c2)[C@H]2CCN(C)C[C@H]2F)cc1 [Compound I-141] | – | 49.3% | – | – | – |
| CCCOc1ccc(CNC(=O)N(Cc2cc(C)n(C)n2)[C@H]2CCN(C)C[C@H]2F)cc1 [Compound I-139] | 2.93 nM | 14.2% | 11.1 nM | – | – |
| Cc1cc(CN(C(=O)NCc2ccc(OCC(C)C)cc2)[C@H]2CCNC[C@H]2F)nn1C [Compound I-133] | – | 6.6% | – | – | – |
| CN1CCC(N(Cc2ccc(F)cn2)C(=O)NCc2ccc(Br)cc2)CC1 [Compound I-082] | 3.74 nM | – | 28.8 nM | – | – |
| COCc1ccc(CNC(=O)N(Cc2ccc(C)cn2)C2CCN(C)CC2)cc1 [Compound I-130] | 15.3 nM | – | 348 nM | – | – |
| CC(C)COc1ccc(CNC(=O)N(Cc2ccc(F)cn2)[C@H]2CCN(C)C[C@@H]2O)cc1 (racemic) [Compound I-088] | 25.7 nM | – | 134 nM | – | – |
| CN1CCC(N(Cc2ccc(F)cn2)C(=O)NCc2ccc(OC3CC3)cc2)CC1 [Compound I-113] | – | – | – | < 10 nM | 10 to 100 nM |
| CC(C)COc1ccc(CNC(=O)N(Cc2ccc(F)c3cc[nH]c23)C2CCN(C)CC2)cc1 [Compound I-081] | – | – | – | > 100 nM | > 100 nM |
| CCCOc1ccc(CNC(=O)N(Cc2cc(C)n(C)n2)C2CCN(C)CC23CC3)cc1 (racemic) [Compound I-109] | – | – | – | < 10 nM | < 10 nM |
| C=Cc1ccc(CNC(=O)N(Cc2ccc(F)cn2)C2CCN(C)CC2)cc1 [Compound I-083] | – | – | – | < 10 nM | 10 to 100 nM |
| CCCOc1ccc(CNC(=O)N(Cc2ccn(C)c2)[C@H]2CCNC[C@H]2F)cc1 [Compound I-134] | 0.475 nM | 31.2% | 3.2 nM | – | – |
| CN1CCC(N(Cc2ccc(F)cn2)C(=O)NCc2ccc(C3CC3)cc2)CC1 [Compound I-125] | – | – | – | < 10 nM | 10 to 100 nM |
| CN1CCC(N(Cc2ccc(F)cn2)C(=O)NCc2ccc(N(C)C)cc2)CC1 [Compound I-121] | – | – | – | 10 to 100 nM | > 100 nM |
| CN1CCC(N(Cc2ccc(F)cn2)C(=O)NCc2ccccc2O)CC1 [Compound I-076] | 62 nM | – | 263 nM | – | – |
